Test results taken from US5861400A, “Pharmaceutical compounds” (Xenova Limited, priority 1994, dated 1999).

test system: AR 1.0 cells; test: Proliferation/toxicity assay, compound alone and with cytotoxic agent (sulphorhodamine B); format: cell-based, mouse; details: 0.5-1 μM, alone

Compound | toxicity of doxorubicin alone to AR 1.0 cells
COc1cccc2c1C(=O)c1c(O)c3c(c(O)c1C2=O)C[C@@](O)(C(=O)CO)C[C@@H]3O[C@H]1C[C@H](N)[C@H](O)[C@H](C)O1 [doxorubicin, reference compound] | non-toxic

test system: AR 1.0 cells; test: Drug accumulation assay (tritiated daunorubicin, AR 1.0 cells); format: cell-based, mouse; details: 100% = accumulation with 100 μM Verapamil, compounds 100 nM to 100 μM, 1 hr
Description: The EMT6 mouse mammary carcinoma cell line and the MDR resistant subline AR 1.0 were cultured in RPMI 1640 medium containing 10% foetal calf serum and 2mM glutamine at 37° C. in 5% CO2. Cells were passaged between 1 in 200 and 1 in 2000 in the case of the parental cell line and between 1 in 20 and 1 in 200 in the case of the MDR resistant subline, after trypsinisation (0.25% trypsin, 0.2 gl^-1, EDTA).
1. Drug accumulation assay
AR 1.0 cells were seeded into 96 well opaque culture plates (Canberra Packard). The assay medium contained a mixture of tritiated Daunorubicin (DNR), a cytotoxic agent, and unlabelled DNR (0.25μ Ci/ml; 2 μM). Compounds of formula A were serially diluted in assay medium over a range of concentrations from 100 nM to 100 μM. The cells were incubated at 37° C. for 1 hr before washing and counting of cell associated radioactivity. Each assay included a titration of the known resistance modifying agent Verapamil as positive control. Results were expressed as % maximum accumulation where 100% accumulation is that observed in the presence of 100 μM Verapamil.

Compound | MAX accumulation (% 100 μm VRP) [%]
(3Z,6Z)-3-Benzylidene-6-(2-furyl)-1,4-dimethyl-2,5-piperazinedione [Compound 1799] | 40.0
(3Z,6Z)-6-Benzylidene-1-methyl-3-(1-tert-butoxycarbonyl-3-(l-tert-butoxycarbonyl-3-indolyl)methylene-2,5-piperazinedione [Compound 1894] | 36.0
(3Z,6Z)-6-Benzylidene-3-furylidene-1,4-dimethyl-2,5-piperazinedione [Compound 1836] | 14.0

same assay, conditions: Mus musculus, 100% = accumulation with 100 μM Verapamil, compounds 100 nM to 100 μM, 1 hr, read-out: MAX accumulation (% 100 μm VRP)

Compound | Emax [%]
COc1ccc(/C=c2/c(=O)[nH]/c(=C\c3ccoc3)c(=O)n2C)cc1 [Compound 1563, (3Z,6Z)-3-(3-Furyl)methylene-6-(4-methoxybenzylidene)-1-methyl-2,5-piperazinedione] | 32.9
COc1ccc(/C=c2/c(=O)[nH]/c(=C\c3cccs3)c(=O)n2C)cc1 [Compound 1564, (3Z,6Z)-6-(4-Methoxybenzylidene)-1-methyl-3-(2-thienylmethylene)-2,5-piperazinedione] | 46.3
COc1ccc(/C=c2/c(=O)[nH]/c(=C\c3cn(C(=O)OC(C)(C)C)c4ccccc34)c(=O)n2C)cc1 [Compound 1565, (3Z,6Z)-6-(4-Methoxybenzylidene)-1-methyl-3-(1-tert-butoxycarbonyl-3-indolyl)methylene-2,5-piperazinedione] | 37.3
Cn1c(=O)/c(=C/c2ccccc2)[nH]c(=O)/c1=C/c1cccs1 [Compound 1569, (3Z,6Z)-3-Benzylidene-1-methyl-6-(2-thienylmethylene)-2,5-piperazinedione] | 46
COc1ccc(/C=c2\[nH]c(=O)/c(=C/c3ccoc3)n(C)c2=O)cc1 [Compound 1596] | 47.7
Cn1c(=O)/c(=C/c2ccccc2)[nH]c(=O)/c1=C/c1ccsc1 [Compound 1641, (3Z,6Z)-3-Benzylidene-1-methyl-6-(3-thienylmethylene)-2,5-piperazinedione] | 50.5
COc1ccc(/C=c2/c(=O)n(C)/c(=C\C=Cc3ccccc3)c(=O)n2C)cc1 [Compound 1777, (3Z,6Z)-3-Cinnamylidene-6-(4-methoxybenzylidene)-1,4-dimethyl-2,5-piperazinedione] | 50
Cn1c(=O)/c(=C/c2cn(C(=O)OC(C)(C)C)c3ccccc23)nc(OCCCN2C(=O)c3ccccc3C2=O)/c1=C/c1ccccc1 [Compound 1895, (3Z,6Z)-6-Benzylidene-1-methyl-5-(3-phthalimidopropoxy)-3-(l-tert-butoxycarbonyl-3-indolyl)methylene-3,6-dihydro-2-pyrazinone] | 12

same assay, conditions: Mus musculus, 1 h, daunorubicin accumulation, 37° C., DNR 2 μM

IC50 [µM] | Compound
80 | COc1ccc(/C=c2/c(=O)n(C)/c(=C\C=Cc3ccccc3)c(=O)n2C)cc1 [Compound 1777, (3Z,6Z)-3-Cinnamylidene-6-(4-methoxybenzylidene)-1,4-dimethyl-2,5-piperazinedione]
20 | Cn1c(=O)/c(=C/c2ccccc2[N+](=O)[O-])n(C)c(=O)/c1=C/c1cccs1 [Compound 1877, (3Z,6Z)-1,4-dimethyl-6-(2-nitrobenzylidene)-3-(2-thienylmethylene)-2,5-piperazinedione]
10 | Cn1c(=O)/c(=C/c2ccccc2)n(CCCN2C(=O)CCC2=O)c(=O)/c1=C/c1ccccc1 [Compound 1932, (3Z,6Z)-3,6-Dibenzylidene-4-methyl-1-(3-succinimidopropyl)-2,5-piperazinedione]
1 | Cn1c(=O)/c(=C/c2ccccc2)nc(OCCCN2C(=O)CCC2=O)/c1=C/c1ccccc1 [Compound 1934, (3Z,6Z)-3,6-Dibenzylidene-1-methyl-5-(3-succinmidopropoxy)-3,6-dihydro-2-pyrazinone]
6 | Cn1c(=O)/c(=C/c2ccccc2)nc(OCCCN2C(=O)C(=O)c3ccccc32)/c1=C/c1ccccc1 [Compound 1935, (3Z,6Z)-3,6-Dibenzylidene-5-(2,3-dioxo-1-indolinyl)propoxy-1-methyl-3,6-dihydro-2-pyrazinone]
